# Assay results reported in PubChem BioAssay AID2060509 (Molecular Pharmacology Branch, DTP, NCI, 2025).
# pIC50: −log10 of the molar value. Values joined by “and” are separate entries in the source; they are usually repeats but may differ in a detail not shown here. Equal values may be shown once.
# Test system: 485176-168-R4-J1-PDC spheroids with HUVEC/MSC, viability
# Experiment: Anticancer human tumor 485176-168-R4-J1-PDC patient-derived pancreatic adenocarcinoma cell line growth inhibition [GQUAD]
# Conditions: for viability, T/C: stronger effect = lower value
# Excerpt: DNA G-quadruplex Stabilizer Agents in Combinations in Complex Spheroids
# A high-throughput screen of multi-cell type tumor spheroids was designed to identify active combinations of DNA G-quadruplex stabilizer agents and targeted small molecules. Complex spheroids include a stromal component modeled by human endothelial cells (HUVEC) and fibroblasts modeled by human mesenchymal stem cells (MSCs). The concentration ranges selected for each drug and investigational agent were based upon clinically achievable concentrations if the clinical Cmax of the agent was known.
# Compounds. The drugs and investigational agents: pidnarulex (CX-5461; NSC782164), APTO-253 (NSC789042), BRACO-19 (NSC847499), peposertib (NSC802822), ceralasertib (NSC780249), elimusertib (NSC800525), camonsertib (NSC841442), AZD-1390 (NSC803789), olaparib (NSC753686), talazoparib (NSC767125), ART-558 (NSC835418), sotorasib (NSC818433), MRTX-1133 (NSC836407), SN-38 (NSC673596), topotecan (NSC609699), etoposide (NSC141540), doxorubicin (NSC123127), gemcitabine (NSC613327), 5-fluorouracil (NSC19893), paclitaxel (NSC125973), vemurafenib (NSC761431), panobinostat (NSC761190), R-306465 (JNJ-16241199; NSC773264), adavosertib (NSC754352), TP-3654 (NSC805149), carboplatin (NSC241240), KSQ-4279 (NSC840948), and staurosporine (NSC755774) were obtained from the National Cancer Institute (NCI) Developmental Therapeutics Program Chemical Repository (34). The FDA-approved anticancer drug set is available from the NCI Developmental Therapeutics Program. […] The stock solutions were prepared in dimethyl sulfoxide (DMSO, Sigma-Aldrich, St. Louis, MO, cat. D2650) at 800-fold the tested concentration and stored at -70 degrees C prior to their use. All drugs and investigational agents were tested over a range starting from a high concentration at or near the clinical Cmax and decreasing in half-log increments. If the clinical Cmax for an agent had not been determined, the highest concentration tested was 10 microM.
# 2.3 Cell Culture. All cells were maintained in an incubator at 37 degrees C and 5% CO2 with 95% humidity. The PDC lines were cultured according to standard operating procedures established by the NCI PDMR. All PDCs were thawed and cultured in Matrigel-coated flasks prepared with a working solution of 1X Ham's F-12 nutrient mix, without supplementation (Invitrogen, cat. 11765054), 100 U/mL penicillin-streptomycin (Invitrogen, cat. 15140122), and 2.5% Matrigel (Corning Inc., cat. 354248) for the first three passages. The 857933-349-R-J2-PDC line was cultured in 6C/Colon 1B media, which includes advanced DMEM/F-12 (Thermo Fisher Scientific, cat. 12634028), 10 mM HEPES (Thermo Fisher Scientific, cat. 15630080), 1X GlutaMAX supplement (Thermo Fisher Scientific, cat. 35050061), 0.1 mg/mL primocin (InvivoGen, cat. ant-pm-2), 10% defined fetal bovine serum, heat inactivated (HyClone Laboratories Inc., cat. SH30070.03HI), 50% L-WRN conditioned media (ATCC, cat. CRL-3276), 1.25 mM N-Acetyl-L-cysteine (Sigma-Aldrich, cat. A9165), 10 mM nicotinamide (Sigma-Aldrich, cat. N0636), 1X B-27 supplement (Thermo Fisher Scientific, cat. 17504044), 1X N-2 supplement (Thermo Fisher Scientific, cat. 17502048), 10 microM Y-27632 dihydrochloride (Tocris Bioscience, cat. 1254), and 50 ng/mL human EGF recombinant protein (Thermo Fisher Scientific, cat. PHG0311). The 485176-168-R4-J1-PDC line was cultured in Panc media, which includes all 6C/Colon 1B media components plus 100 ng/mL human FGF-10 (Thermo Fisher Scientific, cat. 100-26), 500 nM SB-431542 (Selleckchem, cat. S1067), and gastrin (Tocris, cat. 3006).
# […]
# 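Note: spheroids exposed to compounds for seven days before readout.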
# 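Throughout, for viability, T/C: percent viability relative to DMSO vehicle control wells as 100%.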
structure (smiles),measurement,setting,value
CCc1c2c(nc3ccc(O)cc13)-c1cc3c(c(=O)n1C2)COC(=O)[C@]3(O)CC,"viability, T/C",compound 0.000999 µM,70.1% and 80.1% and 81.3%
same,"viability, T/C",compound 0.00316 µM,44.8% and 56.4% and 56%
same,"viability, T/C",compound 0.00999 µM,36% and 50.5% and 37.6%
same,"viability, T/C",compound 0.0316 µM,25.5% and 22.1% and 19.9%
same,"viability, T/C",compound 0.0999 µM,14.2% and 11.4% and 13.2%
same,"viability, T/C",compound 0.316 µM,5.64% and 4.31% and 3.94%
same,pIC50,curve of compound,8.51 and 8.18 and 8.34
Cc1cnc(CNC(=O)c2c(=O)c3ccc(N4CCCN(C)CC4)nc3n3c2sc2ccccc23)cn1,"viability, T/C",compound 0.0316 µM,90.3% [middle of 12 runs]
same,"viability, T/C",compound 0.1 µM,78.8% [middle of 12 runs]
same,"viability, T/C",compound 0.316 µM,64.4% [middle of 12 runs]
same,"viability, T/C",compound 1 µM,55% [middle of 12 runs]
same,"viability, T/C",compound 3.16 µM,39.6% [middle of 12 runs]
same,"viability, T/C",compound 10 µM,36.6% [middle of 12 runs]
same,IC50,"compound alone, run of 03/18/2024",1.17 µM [middle of 10 runs]
CC(=O)O[C@H]1C(=O)[C@@]2(C)[C@H]([C@H](OC(=O)c3ccccc3)[C@]3(O)C[C@H](OC(=O)[C@H](O)[C@@H](NC(=O)c4ccccc4)c4ccccc4)C(C)=C1C3(C)C)[C@]1(OC(C)=O)CO[C@@H]1C[C@@H]2O + Cc1cnc(CNC(=O)c2c(=O)c3ccc(N4CCCN(C)CC4)nc3n3c2sc2ccccc23)cn1,pIC50,"curve of first compound, second compound 0.0316 µM",> 7.50
same,pIC50,"curve of first compound, second compound 0.1 µM",> 7.50
same,pIC50,"curve of first compound, second compound 0.316 µM",> 7.50
same,pIC50,"curve of first compound, second compound 1 µM",> 7.50
same,pIC50,"curve of first compound, second compound 3.16 µM",> 7.50
same,pIC50,"curve of first compound, second compound 10 µM",> 7.50
same,"viability, T/C","second compound 0.0316 µM, first compound 0.0316 µM",30%
same,"viability, T/C","second compound 0.0316 µM, first compound 0.1 µM",13.6%
same,"viability, T/C","second compound 0.0316 µM, first compound 0.316 µM",11.2%
same,"viability, T/C","second compound 0.0316 µM, first compound 1 µM",12.7%
same,"viability, T/C","second compound 0.0316 µM, first compound 3.16 µM",10.6%
same,"viability, T/C","second compound 0.0316 µM, first compound 10 µM",9.91%
same,"viability, T/C","second compound 0.1 µM, first compound 0.0316 µM",27.1%
same,"viability, T/C","second compound 0.1 µM, first compound 0.1 µM",19%
same,"viability, T/C","second compound 0.1 µM, first compound 0.316 µM",12%
same,"viability, T/C","second compound 0.1 µM, first compound 1 µM",12.8%
same,"viability, T/C","second compound 0.1 µM, first compound 3.16 µM",11.7%
same,"viability, T/C","second compound 0.1 µM, first compound 10 µM",9.87%
same,"viability, T/C","second compound 0.316 µM, first compound 0.0316 µM",22%
same,"viability, T/C","second compound 0.316 µM, first compound 0.1 µM",14.2%
same,"viability, T/C","second compound 0.316 µM, first compound 0.316 µM",10.4%
same,"viability, T/C","second compound 0.316 µM, first compound 1 µM",11.8%
same,"viability, T/C","second compound 0.316 µM, first compound 3.16 µM",13.8%
same,"viability, T/C","second compound 0.316 µM, first compound 10 µM",12.9%
same,"viability, T/C","second compound 1 µM, first compound 0.0316 µM",23.1%
same,"viability, T/C","second compound 1 µM, first compound 0.1 µM",17.3%
same,"viability, T/C","second compound 1 µM, first compound 0.316 µM",17.5%
same,"viability, T/C","second compound 1 µM, first compound 1 µM",11.9%
same,"viability, T/C","second compound 1 µM, first compound 3.16 µM",11.8%
same,"viability, T/C","second compound 1 µM, first compound 10 µM",14.7%
same,"viability, T/C","second compound 3.16 µM, first compound 0.0316 µM",26%
same,"viability, T/C","second compound 3.16 µM, first compound 0.1 µM",17.8%
same,"viability, T/C","second compound 3.16 µM, first compound 0.316 µM",12.8%
same,"viability, T/C","second compound 3.16 µM, first compound 1 µM",12.8%
same,"viability, T/C","second compound 3.16 µM, first compound 3.16 µM",15.3%
same,"viability, T/C","second compound 3.16 µM, first compound 10 µM",12.7%
same,"viability, T/C","second compound 10 µM, first compound 0.0316 µM",23.4%
same,"viability, T/C","second compound 10 µM, first compound 0.1 µM",14.8%
same,"viability, T/C","second compound 10 µM, first compound 0.316 µM",14.5%
same,"viability, T/C","second compound 10 µM, first compound 1 µM",12.9%
same,"viability, T/C","second compound 10 µM, first compound 3.16 µM",12.8%
same,"viability, T/C","second compound 10 µM, first compound 10 µM",11.2%
COc1ccc([C@@H](O)c2cc(-c3ncnc4cc(N5CCOCC5)ccc34)c(F)cc2Cl)nn1,"viability, T/C",compound 0.0316 µM,89.1% and 113% and 89.2%
same,"viability, T/C",compound 0.1 µM,75.3% and 88.3% and 77.7%
same,"viability, T/C",compound 0.316 µM,87.5% and 97.3% and 96%
same,"viability, T/C",compound 1 µM,73.4% and 71.1% and 64.4%
same,"viability, T/C",compound 3.16 µM,46.6% and 64.8% and 57.1%
same,"viability, T/C",compound 10 µM,31.4% and 30% and 28.4%
same,pIC50,curve of compound,5.57 and 5.34 and 5.42
